Earlier results as cited in patent publication US9877930B2, “Topical ubiquinol oral supplement compositions with amorphous calcium phosphate” (Premier Dental Products Company, priority 2012, dated 2018).

Key:
adult periodontitis = settings: topical once weekly via syringe for six weeks, with mechanical debridement; sites that bled at day 0
[1] = tested on: human monocytic celline THP-1; settings: LPS-stimulated THP-1
[2] = 150 mg per day in a softgel, orally, within 28 days
[3] = not given; remark: listed apart in the source
periodontal disease = settings: 150 mg capsule/day for two months

Structure (SMILES) | bleeding on probing at treated sites (adult periodontitis) | time required to reach peak concentration (absorption from the gastrointestinal tract) | time to steady-state concentrations (oral treatment) | effect on inflammatory cytokines and chemokines in vitro [1] | peak blood values [2] | water solubility [3] | effect on oral environment for periodontal disease (periodontal disease)
COC1=C(OC)C(=O)C(C/C=C(\C)CC/C=C(\C)CC/C=C(\C)CC/C=C(\C)CC/C=C(\C)CC/C=C(\C)CC/C=C(\C)CC/C=C(\C)CC/C=C(\C)CCC=C(C)C)=C(C)C1=O [CoQ10, ubiquinone] | no bleeding at six weeks |  |  |  |  |  | 
COc1c(O)c(C)c(C/C=C(\C)CC/C=C(\C)CC/C=C(\C)CC/C=C(\C)CC/C=C(\C)CC/C=C(\C)CC/C=C(\C)CC/C=C(\C)CC/C=C(\C)CCC=C(C)C)c(O)c1OC [UBIQUINOL] |  | approximately 6 hours | within two weeks | anti-inflammatory effects | 3.84 µg/mL | less than 0.1 mg/ml | effective in improving oral environment for periodontal disease
